Entries after “also recorded” stand apart in the source; their conditions may differ. Where two headings read alike, the source gives them in different places.
Legend:
[1] = test system: yeast; assay: Yeast microbial fuel cell (U-tube MFC) voltage production; format: cell-based; details: for Maximum voltage (Vmax): across a 10 kΩ resistor
Description: Two-chamber MFCs were constructed in a similar fashion as previously described (Milliken, C. E.; May, H. D. Appl. Microbiol. Biotechnol. 2007, 73, 1180-1189; Sund, C. J.; Wong, M. S.; Sumner, J. J. Biosens. Bioelectron. 2009, 24, 3144-3147; Sund, C. J.; McMasters, S.; Crittenden, S. R.; Harrell, L. E.; Sumner, J. J. Appl. Microbiol. Biotechnol. 2007, 76, 561-568) with some modifications and pictured in FIG. 9. The anodes and cathodes consisted of carbon felt (100% Activated Carbon Fiber Filter, CarboPur Technologies, Montreal, Canada), ⅛ inch thick, cut to the dimensions of 5 cm by 1 cm. The carbon felts were attached to 0.25 mm diameter titanium wires (AlfaAesar, Ward Hill, Mass.) as electrical leads. A new piece of Nafion® 117 (DuPont, Wilmington, Del., USA) was used for each fuel cell. Anode wires were passed through silicone rubber septa used to seal the anode compartment following inoculation while the cathode compartment was covered with a loose-fitting glass vial. Each fuel cell compartment was filled with 20 ml of media and autoclaved. Inoculation of MFCs consisted of addition of 300 μL of stained (25 μM COE) or unstained yeast stock solution (O.D.=1.75). Methylene blue was added separately as a stock solution (0.1% by weight, 2.67 mM) for the positive control runs employing this mediator. MFCs were incubated in an aerobic 30° C. incubator and the potential across a 10 kΩ resistor was measured and recorded every 10 seconds via a DAQPad-6016 and a custom LabView® VI (National Instruments, Austin, Tex., USA).
A U-tube type MFC (Milliken, C. E.; May, H. D. Appl. Microbiol. Biotechnol. 2007, 73, 1180-1189; Sund, C. J.; Wong, M. S.; Sumner, J. J. Biosens. Bioelectron. 2009, 24, 3144-3147; Sund, C. J.; McMasters, S.; Crittenden, S. R.; Harrell, L. E.; Sumner, J. J. Appl. Microbiol. Biotechnol. 2007, 76, 561-568) (FIG. 9) was employed to test and compare the performance of a series of yeast MFCs employing nM concentrations of DSSN+ and DSBN+ to the performance of a series of negative controls with no external mediator and a series of positive controls employing the common electron transport mediator methylene blue in μM concentrations. The details of MFC construction, preparation, and evaluation are discussed in detail in the section entitled “Microbial fuel cell preparation and assembly.” MFC performance was evaluated in terms of voltage instead of current. Voltage readings were obtained as a function of current across a 10 kΩ resistor.

[2] = Cyclic voltammetry blocking experiment: transmembrane electron transport across sBLMs to aq. ferricyanide; details: for transmembrane electron transport across sBLM (current in CV): 2 mol % in DMPC and DPPC sBLMs, aq. ferricyanide, 200 mV/s scan rate
Description: Bilayer membranes supported on glassy carbon electrodes were prepared according to a modified literature procedure (Huang, W.; Zhang, Z.; Han, X.; Tang, J.; Wang, J.; Dong, S.; Wang, E. Biophys. J. 2002, 83, 3245-3255; Wu, Z.; Tang, J.; Cheng, Z.; Yang, X.; Wang, E. Anal. Chem. 2000, 72, 6030-6033). […] Electrode surface modification was performed by applying a constant 1.5 V bias for four minutes to a freshly polished glassy carbon electrode submerged in a 0.1 M aq. NaOH solution. Upon completion of this process the electrode was dried via argon steam followed by deposition of a 5 μL aliquot of the desired DMPC membrane forming solution to the electrode surface. The solvent was allowed to evaporate and electrode was immediately placed into phosphate buffer (pH 7.4) to allow the bilayer to assemble over a 0.5 hour time period. The working electrode containing the supported bilayer lipid membrane (sBLM) was then used directly.
Cyclic voltammograms were collected at scan rates of 50-200 mV/sec using a standard three-electrode setup that employed a Pt wire counter electrode, a Ag/AgCl reference electrode and a glassy carbon working electrode (modified or unmodified). All runs were performed in aq. 0.5 M KCl electrolyte solution containing 1 mM potassium ferricyanide (the active redox and indicator species). Oxygen was removed from the system via bubbling Ar through the solution for several minutes prior to data collection. The working electrode was freshly polished between each run prior to voltammogram collection or sBLM formation followed by voltammogram collection. Data was collected within the range of 0-0.4 V potentials relative to Ag/AgCl.
OPVs within a saturated alkane thiol monolayer can facilitate charge tunneling from a metallic electrode to a tethered redox species (Dudek, S. P.; Sikes, H. D.; Chidsey, C. E. D. J. Am. Chem. Soc. 2001, 123, 8033-8038; Sikes, H. D.; Smalley, J. F.; Dudek, S. P.; Cook, A. R.; Newton, M. D.; Chidsey, C. E. D.; Feldberg, S. W. Science. 2001, 291, 1519-1523). A variation of this approach was used in which supported bilayer membranes (sBLM) containing DSSN+, DSBN+ and other control molecules were prepared on the surface of a glassy carbon electrode surface. The sBLM-modified electrodes were then employed in a series of ‘blocking’ experiments in which cyclic voltammetry was used to monitor the reversible […] of aqueous ferricyanide. The unmodified sBLM acts as an insulating layer between the working electrode and the solution containing ferricyanide thereby greatly suppressing the redox current (Wiegand, G.; Arribas-Layton, N.; Hillebrandt, H.; Sackmann, E.; Wagner, P. J. Phys. Chem. B. 2002, 106, 4245-4254; Żebrowska, A.; Krysiński, P.; ? otowski, Z. Bioelectrochemistry. 2002, 56, 179-184). […]

[3] = UV-Vis absorption and photoluminescence (PL) spectroscopy in solvents of varying polarity; details: for η (quantum efficiency): relative to a fluorescein standard at pH 12
Description: General photophysical and solvatochromatic features of the neutral (DSSN, DSBN) and charged (DSSN+, DSBN+) versions of each chromophore were probed by using UV-Vis absorption and photoluminescence (PL) spectroscopies.

[4] = test system: Baker's yeast; assay: Yeast cell staining, confocal/epi-fluorescence imaging; format: cell-based; details: for accumulation within cell membranes (fluorescence images): 100 μM, 1 hour of shaking, excitation 488 nm
Description: Stock solutions of DSSN+ and DSBN+ (1-5 mM, typically 5 mL) were prepared in pH 7.3 phosphate buffer. […] Cultures were never allowed to exceed an optical density of 6. In a typical cell staining run a 1 mL sample was transferred to 1.5 mL Eppendorf tube and the growth media was removed by centrifugation of cells followed by decanting of the growth media. The cells were then re-suspended in phosphate buffer and an appropriate volume of oligoelectrolyte stock solution was added to achieve a 10-100 μM concentration of DSSN+ or DSBN+. The cells were then shaken lightly for 10-180 min at room temperature. The cells can then be imaged directly or following buffer exchange via centrifugation and cell re-suspension. In an alternate procedure, as is the same staining (membrane incorporation) procedure performed with MFC inoculation samples, the cells are simply stained (by addition of COE stock solutions prepared in growth media to culture samples) and imaged directly in the original growth media. […] Sample preparation is completed by depositing a ˜3-6 μL aliquot of stained cell solution onto a traditional slide followed by a cover slip (in this case the slide is inverted and placed over a water or oil immersion objective interfaced with either a Nikon or Leica confocal fluorescence microscope). […]
FIG. 8 consists of two sets of confocal microscopy fluorescence images of Baker's yeast, each stained and imaged in a 100 μM solution of DSSN+ (FIG. 8A) or DSBN+ (FIG. 8B) after 1 hour of shaking without exchanging the staining media.
The ability of DSBN+ and DSSN+ to be passed on to or exist within cell membranes of subsequent yeast generations born over the course of MFC operation was also investigated. […] Cells from each of these aliquots were imaged using a confocal microscope in epi-fluorescence mode and brightfield mode. […] FIG. 11B is an epi-fluorescence and brightfield image (inset, lower left) of a small group of yeast cells removed from the same MFC on the fourth day of operation.

[5] = Cyclic voltammetry, oxidation of the oligoelectrolytes (current/potential curves); format: physicochemical; details: vs. Ag/AgCl, 200 mV/s scan rate
[6] = UV-Vis absorbance and PL spectroscopy of oligoelectrolytes embedded in lipid bilayers (DMPC vesicles); details: for εmax / λabs / λem / η: lipid bilayer; for blue (hypsochromic) shift in λem / red (bathochromic) shift in λabs: lipid bilayer (DMPC vesicle membranes) compared to water / pH 7.3 HEPES buffer; for η: relative to a fluorescein standard at pH 12
Description: In order to prepare a typical membrane modified vesicle sample by sonication a methanolic DMPC solution containing a desired mol % DSBN+ was prepared (a typical solution is 1-5 mole % DSBN+ based on 50 micro-moles of DMPC). The methanol was slowly removed by argon flow while the solution was held at a constant 32-38° C. followed by vacuum oven drying at room temperature until dried to a constant weight. Next, enough H2O or pH 7 HEPES buffer was added to obtain a solution with a concentration of ˜1-20 mg/mL depending upon application (imaging or photoluminescence measurement for example). This solution was then sonicated at 40-50° C. for 0.5-7 hours, typically until the solution had lost most of its turbidity. This generates multi-lamellar vesicles. Uni-lamellar vesicles with diameters of ˜450 nm (with a somewhat broad size distribution based on cryo-TEM images) were formed as the resulting solution was filtered using 0.45 μm pore size syringe filters to yield a slightly turbid solution that must be further diluted to clarity with water or buffer in order to collect UV absorbance or photoluminescence spectra.
Efforts to modify the vesicle membranes with DSBN+ and DSSN+ followed modified literature procedures (Lin, A. J.; Slack, N. L.; Ahmad, A.; George, C. X.; Samuel, C. E.; Safinya, C. R. Biophys. J. 2003, 84, 3307-3316). First, a lipid stock solution containing the desired fraction of either DSSN+ or DSBN+, typically 1-5 mol % relative to lipid, was prepared in methanol. This lipid/COE stock solution was then heated and held above the transition temperature of the lipid (23° C. and 41° C. for DMPC and DPPC, respectively) as the solvent was removed via Argon flushing, followed by vacuum drying to a constant weight. The resulting lipid/COE solid was then suspended in pH=7.3 HEPES buffer to the desired concentration (1-10 mg/mL). Multi-lamellar vesicles were then formed by self-assembly upon sonication of the resulting solution. Uni-lamellar vesicles were prepared by filtration (using 0.45 or 0.2 μm pore size syringe filters) or by extrusion (Olson, F.; Hunt, C. A.; Szoka, F. C.; Vail, W. J.; Papahadjopoulos, D. Biochim. Biophys. Acta. 1979, 557, 9-23; Socaciu, C.; Bojarski, P.; Aberle, L.; Diehl, H. A. Biophys. Chem. 2002, 99, 1-15; Szoka, F.; Olson, F.; Heath, T.; Vail, W.; Mayhew, E.; Papahadjopoulos, D. Biochim. Biophys. Acta. 1980, 601, 559-571).

[7] = DMSO; value abstracted from reference (Woo et al. JACS 2005); cited from earlier work

Row | SMILES | Maximum voltage (Vmax) ([1]; 190 nM) [mV] | transmembrane electron transport across sBLM (current in CV) [2] | εmax (molar extinction coefficient at λmax) ([3]; DMSO) [Lmol^−1cm^−1 × 10^−4] | λabs ([3]; DMSO) [nm] | λem ([3]; DMSO) [nm] | η (quantum efficiency) ([3]; DMSO) | εmax (molar extinction coefficient at λmax) ([3]; water) [Lmol^−1cm^−1 × 10^−4] | λabs ([3]; water) [nm] | λem ([3]; water) [nm] | η (quantum efficiency) ([3]; water) | accumulation within cell membranes (fluorescence images) [4] | oxidation potential (Eox) [5] [V] | εmax [6] [Lmol^−1cm^−1 × 10^−4] | λabs [6] [nm] | λem [6] [nm] | blue (hypsochromic) shift in λem [6] [nm] | red (bathochromic) shift in λabs [6] [nm] | η [6] | εmax (molar extinction coefficient at λmax) ([3]; THF) [Lmol^−1cm^−1 × 10^−4] | λabs ([3]; THF) [nm] | other results
1 | C[N+](C)(C)CCCCCCN(CCCCCC[N+](C)(C)C)c1ccc(C=Cc2ccc(C=Cc3ccc(N(CCCCCC[N+](C)(C)C)CCCCCC[N+](C)(C)C)cc3)cc2)cc1.[I-].[I-].[I-].[I-] [DSBN+, 1,4-bis(4′-(N,N-bis(6″-(N,N,N-trimethylammonium)hexyl)amino)-styryl)benzene tetraiodide] | ~55 | facilitate transmembrane electron transport; also recorded: display higher currents with respect to the control experiments | 8.2 | 419 | 511 | 0.86 | 6.0 | 406 | 566 | 0.33 | apparent preferential accumulation of the COEs within cell membranes | ~0.55 | 4.8 | 422 | 474 | 92 | 16 | 0.59 | – | – | –
2 | ICCCCCCN(CCCCCCI)c1ccc(C=Cc2ccc(C=Cc3ccc(C=Cc4ccc(N(CCCCCCI)CCCCCCI)cc4)cc3)cc2)cc1 [DSSN, 4,4′-bis(4′-(N,N-bis(6″-iodohexyl)amino)styryl)stilbene] | – | – | 9.6 | 436 | 602 | 0.73 | – | – | – | – | – | – | – | – | – | – | – | – | 10.6 | 426 | λem ([3]; THF): 526 nm; η (quantum efficiency) ([3]; THF): 0.89; εmax (molar extinction coefficient at λmax) ([3]; toluene): 10.7 Lmol^−1cm^−1 × 10^−4; λabs ([3]; toluene): 425 nm; λem ([3]; toluene): 476 nm; η (quantum efficiency) ([3]; toluene): 0.95
3 | CN(C)c1ccc2nc3ccc(=[N+](C)C)cc-3sc2c1 [methylene blue, reference compound] | – | – | – | – | – | – | – | – | – | – | – | – | – | – | – | – | – | – | – | – | Maximum voltage (Vmax) ([1]; 13 μM): ~40 mV
4 | ICCCCCCN(CCCCCCI)c1ccc(C=Cc2ccc(C=Cc3ccc(N(CCCCCCI)CCCCCCI)cc3)cc2)cc1 [DSBN, 1,4-bis(4′-(N,N-bis(6″-iodohexyl)amino)styryl)benzene] | – | – | – | 419 | 516 | 0.81 | – | – | – | – | – | – | – | – | – | – | – | – | 8.5 | 410 | λem ([3]; THF): 466 nm; η (quantum efficiency) ([3]; THF): 0.92; εmax (molar extinction coefficient at λmax) ([3]; toluene): 8.4 Lmol^−1cm^−1 × 10^−4; λabs ([3]; toluene): 410 nm; λem ([3]; toluene): 454 nm; η (quantum efficiency) ([3]; toluene): 0.98; εmax (molar extinction coefficient at λmax) [7]: 7.8 Lmol^−1cm^−1 × 10^−4
5 | CCCCCCCCCCCCN(CCCCCCCCCCCC)CCCCCCCCCCCC [TDA, tridodecylamine, reference compound] | – | Little to no transmembrane electron transfer occurs; also recorded: featureless | – | – | – | – | – | – | – | – | – | – | – | – | – | – | – | – | – | – | –
6 | C[N+](C)(C)CCCCCCN(CCCCCC[N+](C)(C)C)c1ccc(/C=C/c2ccc(/C=C/c3ccc(/C=C/c4ccc(N(CCCCCC[N+](C)(C)C)CCCCCC[N+](C)(C)C)cc4)cc3)cc2)cc1 [DSSN+, 4,4′-bis(4′-(N,N-bis(6″-(N,N,N-trimethylammonium)hexyl)amino)-styryl)stilbene tetraiodide] | ~200 | facilitate transmembrane electron transport; also recorded: display higher currents with respect to the control experiments | 9.8 | 435 | 596 | 0.71 | 6.6 | 412 | 594 | 0.06 | apparent preferential accumulation of the COEs within cell membranes | ~0.55 | 8.4 | 433 | 532 | 62 | 21 | 0.85 | – | – | increase in voltage production compared to methylene blue ([1]; 190 nM vs 13 μM methylene blue): ~5 fold; current response of sBLMs containing DSSN+ instead of DSBN+ ([2]; 2 mol % in sBLMs): greater current response; presence of mediator in later cell generations ([4]; yeast stained with 25 μM, removed from MFC on day 4 of operation): demonstrate the presence of this mediator in later cell generations

— US8614021B2, “Agents for enhanced charge transport across microbial membranes” (The United States of America as represented by the …, priority 2010, dated 2013)
